# Results as given in patent publication US4333938A, “Imino derivatives of 5-aminobenzodioxole-1,3 which are useful as medicaments” (Laboratoires Sarget, priority 1979, dated 1982).
# Values joined by “and” are separate entries in the source; they are usually repeats but may differ in a detail not shown here. Equal values may be shown once.
# Experiments:
# carageenan-induced edema = assay: inhibition of carrageenan-induced edema; format: in vivo, male Wistar rat; settings: oral
# Description: The inflammation is produced in the male Wistar rat by injection of 0.1 ml of a 0.5% suspension of carageenan in physiological serum, into the muscular fascia of the metatarsal region of the hind foot of the animal. The test substance is administered orally at the same time as the carageenan or 30 or 60 min before carageenan. The edema is measured by plethysmometry three hours after the adminstration of the carrageenan.
# [1] = oral toxicity (mortality) in the mouse; settings: in vivo, Swiss mice
# Description: The percentages of mortality produced by the compounds of this invention when administered orally to Swiss mice are shown in Table 1. The animals, free from specific pathogenic organisms were housed in an air conditioned room for 24 to 48 hours before the start of the experiment. They were separated into groups of 5 males and 5 females. The materials were administered to animals which had been fasted for 24 hours by means of a gastric tube in suspension in a 6% thickened julep using a volume equivalent to 0.1 ml per 10 g of body weight. […] They remained under observation for two weeks before being sacrificed and autopsied.
# solubility in water = format: physicochemical
# [2] = system: carrageenan-induced granulomas; assay: activity on carrageenan-induced granulomas; format: in vivo, Male Wistar rats
# Description: Male Wistar rats weighing 130 to 150 grams were given a subcutaneous injection in the central part of the skin of the back of 0.5 ml of an aqueous suspension of carrageenan. Two doses of the test substance are administered, one 30 minutes before and the other 6 hours after carrageenan. At the end of 24 hours the rats were sacrificed and the granulomas were removed and weighed before and after drying for 24 hours at 50° C. The difference in weight of the granulomas wet and dry represents the exudate
# These AD50 are respectively 175(142-215) and 175(150-205) mg/kg.
# phenylbenzoquinone (PBQ) = assay: analgesic activity, phenylbenzoquinone (PBQ) challenge; format: in vivo; settings: male Swiss mouse, oral; for ED50: method of Lichfield and Wilcoxon
# Description: The analgesic activity was determined in the male Swiss mouse using phenylbenzoquinone (PBQ) as the challenging agent (variation of the method of Siegmund et al, Proc. Soc. Exp. Biol. Med. […], 95, 729-31). […] The ED50 was determined by the method of Lichfield and Wilcoxon.
# stomachs = assay: ulcerogenic activity; format: in vivo, female Wistar rat
# Description: The ulcerogenic activity was determined in the female Wistar rat using a variation of the procedure described by J. M. Lwoff, J. Pharmacol. 1971, 3, 1, 81-3. The test substance was administered daily for 3 days to the animals maintained on a aqueous diet. The stomachs were removed after 1, 2, and 3 days of treatment and the ulcerations were classified from 0 to 4. The ulceration index is calculated for each group of animals as the product (average of the classes x the percentage of animals afflicted), while distinguishing acute ulcerations from ulcers which were in the process of healing.
# cotton pellet granulomas = assay: inhibition of cotton pellet granulomas; format: in vivo, male Sprague-Dawley rats; settings: oral, daily for 10 days
# Description: Two cotton pellets weighing 70 mg were implanted under the back skin of male Sprague-Dawley rats anesthetized with ether. Starting the next day, the compound was administered orally daily for 10 days. The rats were sacrificed and the pellets were removed and weighed before and after drying at 50° C. for 24 hours. The weights used were those obtained after deduction of the weight of the implants. The average of the quantities so calculated was determined for each group and compared to the averages of the control group.
# blood sugar level = assay: antidiabetic activity, blood sugar level in streptozotocin hyperglycemic rats; format: in vivo, Female rats; set-up: key: NS: the difference between the blood sugar level in the treated animals and the control animals is not significant; the difference is significant by Student's test at p≤0.05; settings: oral
# Description: Female rats weighing 180-200 grams were given an intraperitoneal dose on day J0 of 100 mg/kg of streptozotocin in a 0.05 M citrate buffer at a pH of 4.5 calculated as 0.5 ml per 100 g of body weight. On day J2 hyperglycemic animals were selected by determining the blood sugar level by the orthotoludine method in a stream continuously removed from the retroorbital sinus. […] On day J3, without previous fasting, the selected animals received the treatment. This consisted of oral administration of the test compound in a 6% aqueous suspension of gum arabic at a volume of 0.5 ml per 100 g of body weight.
# The animals were sacrificed one, two, or four hours after the treatment and their blood sugar levels were determined. Each group of animals was compared to a control group of animals which received only the suspension of gum arabic. Metformin was the substance chosen as the control.
# The results are given in Table 8 which indicates the percentage of decrease in the blood sugar level produced by the treatment.
smiles,measurement,setting,value
"CC(=O)Oc1ccccc1C(=O)O [Aspirin, reference compound]",% inhibiting activity on carrageenan-induced edema,"carageenan-induced edema; at To, 75 mg/kg",40%
same,% inhibiting activity on carrageenan-induced edema,"carageenan-induced edema; at To, 150 mg/kg",46%
same,% inhibiting activity on carrageenan-induced edema,"carageenan-induced edema; at To, 300 mg/kg",68%
same,% inhibiting activity on carrageenan-induced edema,"carageenan-induced edema; at To, 450 mg/kg",64%
"C(=Nc1ccc2c(c1)OCO2)c1cccs1 [Example 1, N-thienylidene-5-aminobenzodioxole-1,3]",mortality at 336 h,[1]; 1000 mg/kg,0%
same,mortality at 336 h,[1]; 1500 mg/kg,20%
same,mortality at 336 h,[1]; 2000 mg/kg,60%
same,mortality at 336 h,[1]; 3000 mg/kg,70%
same,solubility in water,solubility in water,insoluble in water
same,% inhibiting activity on carrageenan-induced edema,"carageenan-induced edema; at To (same time as carrageenan), 25 mg/kg",19%
same,% inhibiting activity on carrageenan-induced edema,"carageenan-induced edema; at To, 50 mg/kg",41%
same,% inhibiting activity on carrageenan-induced edema,"carageenan-induced edema; at To, 100 mg/kg",52%
same,% inhibiting activity on carrageenan-induced edema,"carageenan-induced edema; at To, 200 mg/kg",56%
same,% inhibiting activity on carrageenan-induced edema,"carageenan-induced edema; at To, 400 mg/kg",58%
same,"Exudate, % activity",[2]; 200 mg/kg administered twice,6%
same,"Exudate, % animals 30% protected",[2]; 200 mg/kg administered twice,12.5%
same,"Weight of dry granuloma, % activity",[2]; 200 mg/kg administered twice,1%
same,"Weight of dry granuloma, % animals 30% protected",[2]; 200 mg/kg administered twice,12.5%
same,"Weight of wet granuloma, % activity",[2]; 200 mg/kg administered twice,6%
same,"Weight of wet granuloma, % animals 30% protected",[2]; 200 mg/kg administered twice,12.5%
same,% analgesic activity,phenylbenzoquinone (PBQ); 100 mg/kg,34%
same,% analgesic activity,phenylbenzoquinone (PBQ); 125 mg/kg,43%
same,% analgesic activity,phenylbenzoquinone (PBQ); 150 mg/kg,69%
same,% analgesic activity,phenylbenzoquinone (PBQ); 200 mg/kg,73%
same,ED50,phenylbenzoquinone (PBQ),130 mg/kg
"Cc1ccsc1C=Nc1ccc2c(c1)OCO2 [Example 4, N-(3-methyl-2-thienylidene)-5-aminobenzodioxole-1,3]",mortality at 336 h,[1]; 750 mg/kg,10%
same,mortality at 336 h,[1]; 1000 mg/kg,10%
same,mortality at 336 h,[1]; 1500 mg/kg,60%
same,mortality at 336 h,[1]; 1750 mg/kg,20%
same,mortality at 336 h,[1]; 2000 mg/kg,20%
same,solubility in water,solubility in water,insoluble in water
same,"Ulceration Index, acute","stomachs; 150 mg/kg daily, Day 1",0
same,"Ulceration Index, healing","stomachs; 150 mg/kg daily, Day 1",0
same,"Ulceration Index, acute","stomachs; 150 mg/kg daily, Day 2",0
same,"Ulceration Index, healing","stomachs; 150 mg/kg daily, Day 2",8
same,"Ulceration Index, acute","stomachs; 150 mg/kg daily, Day 3",72
same,"Ulceration Index, healing","stomachs; 150 mg/kg daily, Day 3",16
same,% inhibition with respect to dry pellets,cotton pellet granulomas; dose 150,10%
same,% inhibition with respect to wet pellets,cotton pellet granulomas; dose 150,13%
same,% inhibition with respect to dry pellets,cotton pellet granulomas; dose 300,19%
same,% inhibition with respect to wet pellets,cotton pellet granulomas; dose 300,14%
same,% inhibiting activity on carrageenan-induced edema,"carageenan-induced edema; at To, 75 mg/kg",35%
same,% inhibiting activity on carrageenan-induced edema,"carageenan-induced edema; at To, 150 mg/kg",35%
same,% inhibiting activity on carrageenan-induced edema,"carageenan-induced edema; at To, 300 mg/kg",68%
same,"Exudate, % activity",[2]; 100 mg/kg administered twice,21%
same,"Exudate, % animals 30% protected",[2]; 100 mg/kg administered twice,38%
same,"Weight of dry granuloma, % activity",[2]; 100 mg/kg administered twice,16%
same,"Weight of dry granuloma, % animals 30% protected",[2]; 100 mg/kg administered twice,31%
same,"Weight of wet granuloma, % activity",[2]; 100 mg/kg administered twice,20.5%
same,"Weight of wet granuloma, % animals 30% protected",[2]; 100 mg/kg administered twice,38%
same,"Exudate, % activity",[2]; 200 mg/kg administered twice,34.5%
same,"Exudate, % animals 30% protected",[2]; 200 mg/kg administered twice,71%
same,"Weight of dry granuloma, % activity",[2]; 200 mg/kg administered twice,31%
same,"Weight of dry granuloma, % animals 30% protected",[2]; 200 mg/kg administered twice,64%
same,"Weight of wet granuloma, % activity",[2]; 200 mg/kg administered twice,34%
same,"Weight of wet granuloma, % animals 30% protected",[2]; 200 mg/kg administered twice,71%
same,"Exudate, % activity",[2]; 300 mg/kg administered twice,44.5%
same,"Exudate, % animals 30% protected",[2]; 300 mg/kg administered twice,75%
same,"Weight of dry granuloma, % activity",[2]; 300 mg/kg administered twice,42.5%
same,"Weight of dry granuloma, % animals 30% protected",[2]; 300 mg/kg administered twice,67%
same,"Weight of wet granuloma, % activity",[2]; 300 mg/kg administered twice,44.5%
same,"Weight of wet granuloma, % animals 30% protected",[2]; 300 mg/kg administered twice,75%
same,% analgesic activity,phenylbenzoquinone (PBQ); 75 mg/kg,21%
same,% analgesic activity,phenylbenzoquinone (PBQ); 100 mg/kg,40%
same,% analgesic activity,phenylbenzoquinone (PBQ); 150 mg/kg,37%
same,% analgesic activity,phenylbenzoquinone (PBQ); 200 mg/kg,62%
same,% analgesic activity,phenylbenzoquinone (PBQ); 300 mg/kg,67%
same,ED50,phenylbenzoquinone (PBQ),170 mg/kg
"CN(C)C(=N)N=C(N)N [Metformin, reference compound]",Percentage Decrease in the Blood Sugar,"blood sugar level; 200 mg/kg, treatment 1 h before sacrificing",NS
same,Percentage Decrease in the Blood Sugar,"blood sugar level; 200 mg/kg, treatment 2 h before sacrificing",NS
same,Percentage Decrease in the Blood Sugar,"blood sugar level; 200 mg/kg, treatment 4 h before sacrificing",NS
same,Percentage Decrease in the Blood Sugar,"blood sugar level; 400 mg/kg, treatment 1 h before sacrificing",14%
same,Percentage Decrease in the Blood Sugar,"blood sugar level; 400 mg/kg, treatment 2 h before sacrificing",NS
same,Percentage Decrease in the Blood Sugar,"blood sugar level; 400 mg/kg, treatment 4 h before sacrificing",15%
"O=C(O)c1cccnc1Nc1cccc(C(F)(F)F)c1 [Niflumic Acid, reference compound]","Ulceration Index, acute","stomachs; 100 mg/kg daily, Day 1",330
same,"Ulceration Index, healing","stomachs; 100 mg/kg daily, Day 1",0
same,"Ulceration Index, acute","stomachs; 100 mg/kg daily, Day 2",1
same,"Ulceration Index, healing","stomachs; 100 mg/kg daily, Day 2",400
same,"Ulceration Index, acute","stomachs; 100 mg/kg daily, Day 3",119
same,"Ulceration Index, healing","stomachs; 100 mg/kg daily, Day 3",378
same,% inhibition with respect to dry pellets,cotton pellet granulomas; dose 50,12%
same,% inhibition with respect to wet pellets,cotton pellet granulomas; dose 50,3%
same,% inhibiting activity on carrageenan-induced edema,"carageenan-induced edema; at To, 75 mg/kg",37%
same,% inhibiting activity on carrageenan-induced edema,"carageenan-induced edema; at To, 100 mg/kg",27%
same,% inhibiting activity on carrageenan-induced edema,"carageenan-induced edema; at To, 125 mg/kg",40%
same,% inhibiting activity on carrageenan-induced edema,"carageenan-induced edema; at To, 150 mg/kg",37% and 59%
same,"Exudate, % activity",[2]; 25 mg/kg administered twice,42.5%
same,"Exudate, % animals 30% protected",[2]; 25 mg/kg administered twice,100%
same,"Weight of dry granuloma, % activity",[2]; 25 mg/kg administered twice,41.5%
same,"Weight of dry granuloma, % animals 30% protected",[2]; 25 mg/kg administered twice,87%
same,"Weight of wet granuloma, % activity",[2]; 25 mg/kg administered twice,42.5%
same,"Weight of wet granuloma, % animals 30% protected",[2]; 25 mg/kg administered twice,100%
